Patent US20250025568A1, “COMBINATION OF ANTIBODY-DRUG CONJUGATE AND PARP1 SELECTIVE INHIBITOR” (AstraZeneca UK Limited, priority 2021, published 2025)

Key:
[1] = tested on: CTG-3718 ovarian PDX; assay: Antitumor test in vivo, CTG-3718 xenograft model (Example 8); design: species or system nude mice
Excerpt: The human patient-derived xenograft (PDX) model, CTG-3718, was established from fragments of freshly resected tumor of an ovarian cancer patient who relapsed on treatment with PARP inhibitor talazoparib. This PDX was obtained in accordance with appropriate consent procedures. This ovarian PDX model was subcutaneously passaged in vivo as fragments from animal to animal in nude mice. When tumors reached approximately 250 mm^3, similar-sized tumors were randomly assigned to treatment groups as shown in Table 14: […]

[2] = tested on: BRCA2 −/− DLD-1; conditions: 4 day compound dosing; read-out: BRCA2 −/− DLD-1 prolif 4 d IC50; cited from earlier work
[3] = tested on: NCI-N87 xenograft (gastric cancer cell line); assay: Antitumor test (dose regimen optimization) in vivo, NCI-N87 xenograft model (Example 7); design: species or system Female Nude mice
Experimental: (§1) Female Nude mice (Charles River) aged 5-8 weeks were used, following 7 days acclimatisation before entry into the study. 5×10^6 NCI-N87 tumor cells (gastric cancer cell line) (1:1 in Matrigel) were implanted subcutaneously onto the flank of the female Nude mice. When tumors reached approximately 250 mm^3, similar-sized tumors were randomly assigned to treatment groups as shown in Table 12:
The dose of compound for each animal was calculated based on the individual body weight on the day of dosing. […]

[4] = tested on: WT DLD-1; conditions: 4 day compound dosing; read-out: WT DLD-1 prolif 4 d IC50; cited from earlier work
[5] = tested on: NCI-N87 xenograft (gastric cancer cell line); assay: Antitumor test in vivo, NCI-N87 xenograft model (Example 4); design: species or system Female Nude mice
Experimental: as §1, with “6:” for “12:”
(§2) The dose of compound for each animal was calculated based on the individual body weight on the day of dosing. DS-1062 and AZD5305 were dosed on the same day, with DS-1062 being administered approximately 5 hour post the PO dose of AZD5305. DS-1062 was administered as a single dose at 10 mg/kg on day 1, and AZD5305 was administered at 1 mg/kg QD for 21 days. Duration of dosing was for 21 days.
(§3) Tumor growth inhibition (TGI) was calculated as follows:
(§4) where MTV=mean tumor volume.
(§5) Statistical significance was evaluated using one-tailed t-test of (log (relative tumor volume)=log (final vol/start vol)) at the day of final measure, comparing to vehicle control.

[6] = tested on: CTG-3303 TNBC PDX; assay: Antitumor test in vivo, TNBC patient derived xenograft model (Example 5); design: species or system Female Nude mice; conditions: for TGI % day 46: CTG-3303 TNBC PDX; for percentage of mice achieving a complete response (tumor volume <20 mm^3): day 46 post treatment
Excerpt: Female Nude mice (Charles River) aged 5-8 weeks were used, following 7 days acclimatisation before entry into the study. The human patient-derived xenograft (PDX) model, CTG-3303, was established from fragments of freshly resected tumor of a triple negative breast cancer (TNBC) patient whom relapsed on treatment with PARP inhibitor talazoparib. This PDX was obtained in accordance with appropriate consent procedures. This TNBC PDX model was subcutaneously passaged in vivo as fragments from animal to animal in nude mice. When tumors reached approximately 250 mm^3, similar-sized tumors were randomly assigned to treatment groups as shown in Table 8:
as §2, §3, §4, §5
In addition, the percentage of mice in each treatment group achieving a complete response (defined as tumor volume <20 mm^3) at day 46 post treatment were calculated and shown in FIG. 19B. Monotherapy with DS-1062 at 10 mg/kg led to 1 out 8 mice (12.5%) achieving a complete response at day 46 post treatment. AZD5305 monotherapy led to 0 out 8 mice (0%) achieving a complete response at day 46 post treatment. Combination treatment of AZD5305 with DS-1062 at 10 mg/kg led to 2 out 8 mice (25%) achieving a complete response at day 46 post treatment and led to higher complete response rates than either respective monotherapy.

[7] = tested on: NCI-N87 xenograft (gastric cancer cell line); assay: Antitumor test (dose titration) in vivo, NCI-N87 xenograft model (Example 6); design: species or system Female Nude mice
Experimental: as §1, with “10:” for “12:”
as §2, with “administered at 1, 0.1 or 0.01 mg/kg QD” for “administered at 1 mg/kg QD”

[8] = biological target: hERG (Homo sapiens, UniProt Q12809); conditions: cited from earlier work
hERG, sequence (Q12809 whole entry): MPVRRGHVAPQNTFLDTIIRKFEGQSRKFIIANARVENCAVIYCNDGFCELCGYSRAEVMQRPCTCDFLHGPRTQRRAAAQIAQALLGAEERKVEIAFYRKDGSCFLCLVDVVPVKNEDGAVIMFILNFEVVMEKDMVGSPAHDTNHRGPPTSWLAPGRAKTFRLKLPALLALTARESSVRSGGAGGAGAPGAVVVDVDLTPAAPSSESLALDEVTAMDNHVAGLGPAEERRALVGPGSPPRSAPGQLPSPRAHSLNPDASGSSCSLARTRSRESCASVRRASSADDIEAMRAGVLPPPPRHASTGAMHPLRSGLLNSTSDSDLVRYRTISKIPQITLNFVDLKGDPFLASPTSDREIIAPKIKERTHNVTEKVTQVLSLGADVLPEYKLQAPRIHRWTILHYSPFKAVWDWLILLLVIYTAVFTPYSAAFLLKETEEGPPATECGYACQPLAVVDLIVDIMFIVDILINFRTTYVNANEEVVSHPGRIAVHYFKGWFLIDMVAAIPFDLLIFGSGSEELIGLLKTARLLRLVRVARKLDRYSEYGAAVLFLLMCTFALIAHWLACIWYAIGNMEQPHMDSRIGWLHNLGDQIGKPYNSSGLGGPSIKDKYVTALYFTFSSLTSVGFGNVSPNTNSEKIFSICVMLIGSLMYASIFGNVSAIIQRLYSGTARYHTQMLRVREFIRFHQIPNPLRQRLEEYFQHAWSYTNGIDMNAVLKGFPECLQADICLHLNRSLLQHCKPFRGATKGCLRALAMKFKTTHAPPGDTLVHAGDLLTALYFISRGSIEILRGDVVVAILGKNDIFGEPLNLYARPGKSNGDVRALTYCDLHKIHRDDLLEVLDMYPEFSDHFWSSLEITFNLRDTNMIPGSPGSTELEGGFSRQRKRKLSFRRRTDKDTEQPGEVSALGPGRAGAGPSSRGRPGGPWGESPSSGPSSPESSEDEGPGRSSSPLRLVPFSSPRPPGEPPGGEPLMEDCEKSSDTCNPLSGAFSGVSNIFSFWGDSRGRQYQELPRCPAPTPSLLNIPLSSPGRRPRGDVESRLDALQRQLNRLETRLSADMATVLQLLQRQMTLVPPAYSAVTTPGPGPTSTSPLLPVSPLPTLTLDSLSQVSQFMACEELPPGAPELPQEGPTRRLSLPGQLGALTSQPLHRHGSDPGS

[9] = AZD5305 1 mg/kg PO QD for 21 days, 1 mg/kg
[10] = DS-1062 10 mg/kg IV single dose, 10 mg/kg

Molecule | TGI % day 28 ([1]; AZD5305 0.1 mg/kg PO QD (21 days), 0.1 mg/kg) [%] | IC50 [2] [µM] | TGI % day 52 ([3]; AZD5305 1 mg/kg PO QD (21 days), 1 mg/kg) [%] | IC50 [4] [µM] | TGI % day 19 [5, 9] [%] | TGI % day 46 [6, 9] [%] | percentage of mice achieving a complete response (tumor volume <20 mm^3) ([6]; AZD5305 1 mg/kg QD) [%] | TGI % day 49 [7, 9] [%] | IC50 [8] [µM] | TGI % day 28 [1, 10] [%] | TGI % day 52 [3, 10] [%] | TGI % day 19 [5, 10] [%] | TGI % day 46 [6, 10] [%] | percentage of mice achieving a complete response (tumor volume <20 mm^3) ([6]; DS-1062 10 mg/kg) [%] | TGI % day 49 [7, 10] [%]
CCc1cc2ncc(CN3CCN(c4ccc(C(=O)NC)nc4)CC3)cc2[nH]c1=O [Example 4, 5-[4-[(7-ethyl-6-oxo-5H-1,5-naphthyridin-3-yl)methyl]piperazin-1-yl]-N-methyl-pyridine-2-carboxamide] | −16 | > 0.017 | 26 | > 30 | 22 | 28 | 0 | 18 | – | – | – | – | – | – | –
CCc1cc2ncc(CN3CCN(c4ccc(C(=O)NC)nc4C(F)(F)F)CC3)cc2[nH]c1=O [Example 30, 5-[4-[(7-ethyl-6-oxo-5H-1,5-naphthyridin-3-yl)methyl]piperazin-1-yl]-N-methyl-6 (trifluoromethyl)pyridine-2-carboxamide] | – | 0.004 | – | > 30 | – | – | – | – | > 40 | – | – | – | – | – | –
DS-1062: anti-TROP2 antibody-drug conjugate; exatecan-derivative drug-linker conjugated to the anti-TROP2 antibody via a thioether bond; DAR ~4 (conjugate, chains of the INN, looked up, exatecan-derivative drug-linker, DAR ~4) VH: QVQLVQSGAEVKKPGASVKVSCKASGYTFTTAGMQWVRQAPGQGLEWMGWINTHSGVPKYAEDFKGRVTISADTSTSTAYLQLSSLKSEDTAVYYCARSGFGSSYWYFDVWGQGTLVTVSS VL: DIQMTQSPSSLSASVGDRVTITCKASQDVSTAVAWYQQKPGKAPKLLIYSASYRYTGVPSRFSGSGSGTDFTLTISSLQPEDFAVYYCQQHYITPLTFGQGTKLEIK | – | – | – | – | – | – | – | – | – | 72 | 84 | 82 | 88 | 12.5 | 75
